In patent publication US12441746B2, “HCK inhibitors for the treatment of fibrosis and cancer” (Icahn School of Medicine at Mount Sinai, priority 2020, dated 2025):
Read-outs that look alike come from different tables or passages of the source.

Legend:
Src-family kinase (SFK) = assay: Inhibition of all Src-family kinase (SFK) activity; assay type: biochemical; conditions: FIG. 3
HK2 cells = assay: mRNA expression of fibrosis markers in HK2 cells; assay type: cell-based
[1] = test system: SMAD3 transcriptional activity in HEK293 cells; assay: SMAD3 transcriptional activity in HEK293 cells; assay type: cell-based
HCK kinase = molecular target: T1, HCK kinase (Homo sapiens, UniProt P08631); assay: HCK activity inhibition, radioactive kinase assay (Reaction Biology Corp); assay type: biochemical
T1 construct: purchased Reaction Biology Corp
Procedure: HCK activity inhibition efficiency for the inhibitors. Inhibiting efficiency is performed in Reaction Biology with Corp P32 radioactive kinase assay, comparing compounds of the invention with dasatinib for HCK, Bcr-Abl and other binding kinases identified in the reference. Briefly, HCK kinase was delivered into the substrate solution and gently mixed, then compounds in DMSO were added into the kinase reaction mixture by Acoustic technology (Echo550; Nano liter range), and incubated for 20 minutes at room temperature. 33P-ATP was delivered into the reaction mixture to initiate the reaction. The kinase reaction was incubated for 2 hours at room temperature. Reactions were spotted onto P81 ion exchange paper, and detected kinase activity was measured by filter-binding method.

Cytotoxicity = assay type: cell-based; conditions: at 50 uM (data not shown)
murine UUO model = assay: Murine unilateral ureteral obstruction (UUO) kidney fibrosis model; assay type: in vivo, Male C57BL/6 mice; conditions: 25 mg/kg by gavage daily, 7-days post-UUO
Procedure: Inhibiting Hck activity in vivo with Example 2 attenuates kidney fibrosis in murine UUO model: Unilateral ureteral obstruction (UUO) was performed on Male C57BL/6 mice (˜10 weeks age). Mice were perfused 7-days post UUO. The inhibitory activity of the compounds of the invention as compared to controls was determined. The UUO mice were treated with Example 2 at 25 mg/kg or vehicle (n=5) by gavage daily started one day prior to the surgery to 7-days post-surgery. […] Compounds of the invention are promising HCK-specific inhibitors.
FIG. 1 depicts mRNA—levels of pro-fibrotic markers at 7-days post-UUO by RT-PCR (normalized to GAPDH), from whole cortices of control and UUO kidneys of Example 2 and PBS-fed animals. […] Values are mean±SEM. *P<0.05.

[2] = compared with vehicle-treated mice

T1 sequence (P08631 whole entry): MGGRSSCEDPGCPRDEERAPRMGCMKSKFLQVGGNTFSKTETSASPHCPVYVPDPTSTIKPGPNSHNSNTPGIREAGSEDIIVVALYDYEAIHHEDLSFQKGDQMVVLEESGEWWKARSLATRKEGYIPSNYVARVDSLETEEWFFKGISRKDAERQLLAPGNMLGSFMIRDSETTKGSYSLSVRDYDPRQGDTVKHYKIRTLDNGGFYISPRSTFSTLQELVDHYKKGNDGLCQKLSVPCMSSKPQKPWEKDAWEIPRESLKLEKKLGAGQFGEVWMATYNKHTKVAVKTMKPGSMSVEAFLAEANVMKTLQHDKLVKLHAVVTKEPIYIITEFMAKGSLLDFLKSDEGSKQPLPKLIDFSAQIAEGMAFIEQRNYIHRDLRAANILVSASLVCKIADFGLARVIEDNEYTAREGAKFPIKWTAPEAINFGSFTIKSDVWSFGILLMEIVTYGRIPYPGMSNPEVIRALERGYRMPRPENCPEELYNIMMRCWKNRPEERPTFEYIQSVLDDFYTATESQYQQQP

In the case of Clc1cc(Cl)c2c(c1)C=C(C1=NOB(c3ccccc3)N1)C(c1ccccc1)O2 (centres unmarked) [Example 2, 3-(6,8-dichloro-2-phenyl-2H-chromen-3-yl)-5-phenyl-4,5-dihydro-1,2,4,5-oxadiazaborole], the “selectivity among Src-family kinases” value (Src-family kinase (SFK)) is reported as “selectivity to HCK inhibition”, the “mRNA expression of fibrosis markers” value (HK2 cells; FIG. 4) is reported as “reduced” and the “mRNA expression of COL1A1” value (HK2 cells; HK2 cells) is reported as “reduced”. For the same compound, the “mRNA expression of FN1” value (HK2 cells; HK2 cells) was “reduced”, the “mRNA expression of SNAIL” value (HK2 cells; HK2 cells) was “reduced” and the SMAD3 transcriptional activity [1] was “reduced”. The IC50 (HCK kinase; HCK, read-out: IC50) was < 20 µM, the IC50 (HCK kinase; radioactive kinase assay, 33P-ATP, 2 hours at room temperature, read-out: IC50 for HCK activity) was ~12 µM and the cytotoxicity (Cytotoxicity) was “no cytotoxicity”. For the same compound, the “renal fibrosis in the UUO kidneys (Masson and collagen I staining)” value (murine UUO model) was “reduced renal fibrosis”, the “RTEC injury in the UUO kidney (H&E staining)” value (murine UUO model; compared to vehicle-treated mice) was “reduced RTEC injury” and the “expression of Col1a1 in the UUO kidney” value (murine UUO model; [2]) was “significantly decreased”. The “expression of FSP-1 in the UUO kidney” value (murine UUO model; [2]) was “significantly decreased” and the “expression of Fibronectin in the UUO kidney” value (murine UUO model; [2]) was “significantly decreased”.
